Data taken from patent US8362000B2, “Azetidinyl diamides as monoacylglycerol lipase inhibitors” (Janssen Pharmaceutica NV, priority 2009, dated 2013).
Residue numbers refer to the chain shown, from its start. Read-outs that look alike come from different tables or passages of the source. One block for each compound: values may come before it.

What was measured:
[1] = target: T1, mutant MGL (Homo sapiens, UniProt Q99685, L169S/L176S); assay: MGL ThermoFluor assay - mutant; type: binding
T1 sequence (Q99685 1-303 L169S/L176S): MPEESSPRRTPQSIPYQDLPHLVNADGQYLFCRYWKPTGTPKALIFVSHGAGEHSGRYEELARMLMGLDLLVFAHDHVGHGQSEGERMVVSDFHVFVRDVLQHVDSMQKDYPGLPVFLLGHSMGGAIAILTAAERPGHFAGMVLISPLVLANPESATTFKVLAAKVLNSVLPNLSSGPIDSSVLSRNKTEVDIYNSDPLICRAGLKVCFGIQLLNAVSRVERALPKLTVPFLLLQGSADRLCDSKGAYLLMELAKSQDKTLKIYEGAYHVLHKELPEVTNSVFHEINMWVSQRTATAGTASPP

[2] = target: T2, purified wild type MGL (wt-MGLL 6H-11-313) (Homo sapiens, UniProt Q99685)
T2 sequence (Q99685 1-303): T1 sequence (Q99685 1-303 L169S/L176S) with S169L, S176L

[3] = target: T3, MGL (Rattus norvegicus, UniProt Q8R431); assay: 2-AG accumulation assay in rat brain homogenate; type: biochemical; conditions: rat brain homogenate; compound 1 μM; 2-AG accumulation as percent of vehicle; read-out: Rat Brain 2AG % VehCntrl (%) @ 1 μM
T3 construct: one g rat brain was homogenized using a Polytron homogenizer; from tissue; host or cells: rat brain homogenate
T3 sequence (Q8R431 1-303): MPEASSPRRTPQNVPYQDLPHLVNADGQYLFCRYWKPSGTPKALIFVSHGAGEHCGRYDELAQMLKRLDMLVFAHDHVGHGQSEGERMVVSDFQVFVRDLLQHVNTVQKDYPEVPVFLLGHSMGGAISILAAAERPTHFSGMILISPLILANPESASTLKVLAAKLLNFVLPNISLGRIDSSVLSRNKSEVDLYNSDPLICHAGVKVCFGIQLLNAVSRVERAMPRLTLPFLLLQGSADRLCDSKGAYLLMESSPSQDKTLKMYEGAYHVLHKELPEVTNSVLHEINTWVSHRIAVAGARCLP

[4] = ThermoFluor concentration-response, read-out: MGL mutant ThermoFluor Kd
[5] = ThermoFluor thermal stability binding assay, read-out: MGL mutant ThermoFluor Kd
[6] = compound concentration measured by qNMR, read-out: MGL mutant ThermoFluor qKd (using qNMR conc.)

SMILES: O=C(c1nccs1)N1CCN(C2CN(C(=O)c3ccc(-c4ccccc4)cc3Cl)C2)CC1 [Cpd 1323]
Kd [1, 4]: 0.004 µM
IC50 [2]: < 5 nM
2-AG accumulation, % of vehicle control at 1 µM [3]: 297%

SMILES: Cc1cc(-c2ccc(Cl)c(C(F)(F)F)c2)ccc1C(=O)N1CC(N2CCN(C(=O)c3cscn3)CC2)C1 [Cpd 254, 1-(1-{[4′-Chloro-3-methyl-3′-(trifluoromethyl)biphenyl-4-yl]carbonyl}azetidin-3-yl)-4-(1,3-thiazol-4-ylcarbonyl)piperazine]
Kd [1, 5]: 0.0059 µM
IC50 [2]: < 5 nM
2-AG accumulation, % of vehicle control at 1 µM [3]: 544%

SMILES: Cc1c(C(=O)N2CC(N3CCN(C(=O)c4nccs4)CC3)C2)[nH]c2ccc(Cl)cc12 [Cpd 688, 5-Chloro-3-methyl-2-({3-[4-(1,3-thiazol-2-ylcarbonyl)piperazin-1-yl]azetidin-1-yl}carbonyl)-1H-indole]
Kd [1, 4]: 0.046 µM
IC50 [2]: 44 nM
2-AG accumulation, % of vehicle control at 1 µM [3]: 373%

SMILES: COc1ccc(C(=O)N2CC(N3CCN(C(=O)c4nccs4)CC3)C2)cc1-c1ccccc1 [Cpd 1168]
Kd [1, 4]: 0.067 µM
IC50 [2]: 53 nM
2-AG accumulation, % of vehicle control at 1 µM [3]: 780%

SMILES: O=C(c1ccc(-c2ccccc2)cc1)N1CCN(C2CN(C(=O)c3nccs3)C2)CC1 [Cpd 1236, 1-(Biphenyl-4-ylcarbonyl)-4-[1-(1,3-thiazol-2-ylcarbonyl)azetidin-3-yl]piperazine]
Kd [1, 4]: 0.031 µM
IC50 [2]: 390 nM
2-AG accumulation, % of vehicle control at 1 µM [3]: 167%

SMILES: COc1cc(C(=O)N2CC(N3CCN(C(=O)c4cscn4)CC3)C2)ccc1-c1ccc(Cl)c(C(F)(F)F)c1 [Cpd 262, 1-(1-{[4′-Chloro-2-methoxy-3′-(trifluoromethyl)biphenyl-4-yl]carbonyl}azetidin-3-yl)-4-(1,3-thiazol-4-ylcarbonyl)piperazine]
Kd [1, 5]: 0.0025 µM
IC50 [2]: < 5 nM
2-AG accumulation, % of vehicle control at 1 µM [3]: 386%

SMILES: O=C(c1ccc(-c2nc(-c3ccccc3)cs2)cc1)N1CC(N2CCN(C(=O)c3nccs3)CC2)C1 [Cpd 1326]
Kd [1, 4]: 0.004 µM
IC50 [2]: < 5 nM
2-AG accumulation, % of vehicle control at 1 µM [3]: 944%

SMILES: Cc1cn(-c2ccc(F)c(F)c2)c2ccc(C(=O)N3CCN(C4CN(C(=O)c5nccs5)C4)CC3)cc12 [Cpd 1134, 1-(3,4-Difluorophenyl)-3-methyl-5-({4-[1-(1,3-thiazol-2-ylcarbonyl)azetidin-3-yl]piperazin-1-yl}carbonyl)-1H-indole]
Kd ([1]; ThermoFluor, compound concentration measured by qNMR, read-out: MGL mutant ThermoFluor qKd (using qNMR conc.)): 0.009 µM
IC50 [2]: 25 nM
2-AG accumulation, % of vehicle control at 1 µM [3]: 774%

SMILES: O=C(c1cscn1)N1CCN(C2CN(C(=O)c3cc4ccn(-c5ccc(F)cc5)c4cc3F)C2)CC1 [Cpd 1069]
Kd [1, 4]: 0.028 µM
IC50 [2]: 7 nM
2-AG accumulation, % of vehicle control at 1 µM [3]: 696%

SMILES: CC(C)(C)c1ccc(C(=O)N2CC(N3CCN(C(=O)c4nccs4)CC3)C2)cc1 [Cpd 672]
Kd [1, 4]: 0.016 µM
IC50 [2]: 17 nM
2-AG accumulation, % of vehicle control at 1 µM [3]: 268%

SMILES: O=C(c1ccccc1)N1CCN(C2CN(C(=O)c3ccc4c(-c5ccc(C(F)(F)F)cc5)c[nH]c4c3)C2)CC1 [Cpd 634]
Kd [1, 4]: 0.054 µM
IC50 [2]: 57 nM
2-AG accumulation, % of vehicle control at 1 µM [3]: 301%

SMILES: COc1ccc(C(=O)N2CC(N3CCN(C(=O)c4cscn4)CC3)C2)cc1-c1ccccc1 [Cpd 1265]
Kd [1, 4]: 0.66 µM
IC50 [2]: 1050 nM
2-AG accumulation, % of vehicle control at 1 µM [3]: 192%

SMILES: O=C(c1nccs1)N1CCN(C2CN(C(=O)c3cc(-c4ccccc4)ccc3Cl)C2)CC1 [Cpd 1200]
Kd [1, 4]: 0.5 µM
IC50 [2]: 151 nM
2-AG accumulation, % of vehicle control at 1 µM [3]: 231%

SMILES: O=C(c1nccs1)N1CCN(C2CN(C(=O)c3sc4ccc(-c5ccc(C(F)(F)F)cc5)cc4c3F)C2)CC1 [Cpd 1092]
Kd [1, 4]: 0.005 µM
IC50 [2]: 11 nM
2-AG accumulation, % of vehicle control at 1 µM [3]: 838%

SMILES: O=C(c1ccc(F)cc1)c1c[nH]c2cc(C(=O)N3CC(N4CCN(C(=O)c5nccs5)CC4)C3)ccc12 [Cpd 1025]
Kd [1, 6]: 0.066 µM
IC50 [2]: 19 nM
2-AG accumulation, % of vehicle control at 1 µM [3]: 851%

SMILES: Cc1c(C(=O)N2CC(N3CCN(C(=O)c4nccs4)CC3)C2)sc2cc(F)ccc12 [Cpd 684]
Kd [1, 5]: 0.004 µM
IC50 [2]: 31 nM
2-AG accumulation, % of vehicle control at 1 µM [3]: 645%

SMILES: Cc1c(C(=O)N2CC(N3CCN(C(=O)c4cscn4)CC3)C2)sc2ccc(-c3ccccc3)cc12 [Cpd 1058, 1-{1-[(3-Methyl-5-phenyl-1-benzothiophen-2-yl)carbonyl]azetidin-3-yl}-4-(1,3-thiazol-4-ylcarbonyl)piperazine]
Kd [1, 4]: 0.007 µM
IC50 [2]: 6 nM
2-AG accumulation, % of vehicle control at 1 µM [3]: 590%

SMILES: CCCn1ccc2cc(C(=O)N3CC(N4CCN(C(=O)c5nccs5)CC4)C3)ccc21 [Cpd 687]
Kd [1, 4]: 0.004 µM
IC50 [2]: 44 nM
2-AG accumulation, % of vehicle control at 1 µM [3]: 698%

Second part, the compound after the results:

Kd [1, 5]: 0.047 µM
IC50 [2]: 10 nM
2-AG accumulation, % of vehicle control at 1 µM [3]: 764%
SMILES: O=C(c1ccc2c(c1)CCN(c1ccccn1)C2)N1CC(N2CCN(C(=O)c3nccs3)CC2)C1 [Cpd 661]

Kd [1, 4]: 0.031 µM
IC50 [2]: 22 nM
2-AG accumulation, % of vehicle control at 1 µM [3]: 234%
SMILES: O=C(c1ccc2c(c1)Sc1ccccc1O2)N1CC(N2CCN(C(=O)c3ccc[nH]3)CC2)C1 [Cpd 678, 1-[1-(Phenoxathiin-2-ylcarbonyl)azetidin-3-yl]-4-(1H-pyrrol-2-ylcarbonyl)piperazine]

Kd [1, 6]: 0.009 µM
IC50 [2]: 16 nM
2-AG accumulation, % of vehicle control at 1 µM [3]: 508%
SMILES: O=C(c1cc(F)c2c(ccn2-c2ccc(F)cc2)c1)N1CC(N2CCN(C(=O)c3cscn3)CC2)C1 [Cpd 1111]

Kd [1, 4]: 0.005 µM
IC50 [2]: < 5 nM
2-AG accumulation, % of vehicle control at 1 µM [3]: 626%
SMILES: CCCCCc1ccc(C(=O)N2CC(N3CCN(C(=O)c4nccs4)CC3)C2)cc1 [Cpd 893]

Kd ([1]; ThermoFluor, compound concentration measured by qNMR, read-out: MGL mutant ThermoFluor qKd (μM) (using qNMR conc.)): 0.004 µM
IC50 [2]: < 5 nM
2-AG accumulation, % of vehicle control at 1 µM [3]: 585%
SMILES: O=C(c1nccs1)N1CCN(C2CN(C(=O)c3sc4c(C(F)(F)F)c(F)ccc4c3Cl)C2)CC1 [Cpd 902, 1-(1-{[3-chloro-6-fluoro-7-(trifluoromethyl)-1-benzothiophen-2-yl]carbonyl}azetidin-3-yl)-4-(1,3-thiazol-2-ylcarbonyl)piperazine]

Kd [1, 4]: 0.032 µM
IC50 [2]: 12 nM
2-AG accumulation, % of vehicle control at 1 µM [3]: 422%
SMILES: O=C(c1ccc2c(ccn2-c2ccc(C(F)(F)F)cc2)c1)N1CC(N2CCN(C(=O)c3ccns3)CC2)C1 [Cpd 1097, 5-({3-[4-(Isothiazol-5-ylcarbonyl)piperazin-1-yl]azetidin-1-yl}carbonyl)-1-[4-(trifluoromethyl)phenyl]-1H-indole]

Kd [1, 4]: 0.24 µM
IC50 [2]: 11 nM
2-AG accumulation, % of vehicle control at 1 µM [3]: 472%
SMILES: O=C(c1cccc(-c2cccc(C(F)(F)F)c2)c1)N1CC(N2CCN(C(=O)c3nccs3)CC2)C1 [Cpd 1093]

Kd [1, 4]: 0.049 µM
IC50 [2]: 35 nM
2-AG accumulation, % of vehicle control at 1 µM [3]: 307%
SMILES: O=C(c1ccccc1)c1ccc(C(=O)N2CC(N3CCN(C(=O)c4nccs4)CC3)C2)cc1 [Cpd 1017]

Kd [1, 5]: 0.0333 µM
IC50 [2]: 13.4 nM
2-AG accumulation, % of vehicle control at 1 µM [3]: 157%
SMILES: Cc1cc(-c2ccc(Cl)c(C(F)(F)F)c2)ccc1C(=O)N1CC(N2CCN(C(=O)c3ccccc3)CC2)C1 [Cpd 256, 1-(1-{[4′-Chloro-3-methyl-3′-(trifluoromethyl)biphenyl-4-yl]carbonyl}azetidin-3-yl)-4-(phenylcarbonyl)piperazine]
